{"source": "patent US20260256790A1", "about": "“DEBIO-0123 IN COMBINATION WITH TEMOZOLOMIDE AND RADIOTHERAPY FOR USE IN TREATING GLIOMA” (Debiopharm International S.A., priority 2023, published 2026)", "key": {"[1]": {"system": "SNB-19 GBM cell line", "assay": "Colony formation with radiotherapy, SNB-19", "format": "cell-based", "conditions": "SNB19; 0.1 μM to 5.0 μM; irradiated at 1, 2 and 4 Gy; p<0.0001", "experimental": "GBM tumor cells (T98G, LN18, SNB-19 and U251) were grown as an adherent monolayer at 37° C. in a humidified atmosphere (5% CO2, 95% air). For experimental use, tumor cells were detached from culture flasks by a 5-minute treatment with trypsin-versene, in Hanks' medium without calcium or magnesium and neutralized by addition of complete culture medium. Cells were counted and viability assessed using a 0.25% trypan blue exclusion assay. All cell lines were appropriately seeded following the conditions for monolayer colony formation in 6-well plates (Ref #152795, Nunc, Dutscher) in 1.9 ml of cell culture medium, at 3 densities for evaluation of a proclonogenic effect. […]\nTreatments were performed at 24 hours (D1) after seeding by addition of ×20 concentrated compound or vehicle solutions, to obtain final concentrations of 0.1 μM to 5.0 μM of Compound of formula (I) [referred to as CoF (I) in FIG. 3]. […] After 14 days of incubation, colonies were counted after being stained through incubation with 500 μl of a solution of water containing 0.05% (w/v) of methylene blue (Ref. M4159, Sigma) for 2 hours. Colonies were counted using a colony counter pen (Ref #045855, Dutscher, Brumath, France). The Surviving Fraction was calculated for each condition using the equations described below and plotted on a semi-logarithmic graph using the Linear-Quadratic model. […]"}, "[2]": {"assay": "CSF and matching plasma concentrations in glioma patients (clinical trial Arms A and B)", "format": "in vivo, human", "experimental": "In the clinical trial described in Example 9, cerebrospinal fluid (CSF) stabilized with formic acid 0.5% and matching plasma samples collected on K2 EDTA were drawn from 3 patients of Arm A on day 11 of cycle 1 (i.e. 2 patients at 150 mg and 1 patient at 200 mg of Study drug) and 1 patient of Arm B on Week 3 day 1 (i.e. Day 15 after daily doses of Study drug at 90 mg).\nStudy drug (parent, active moiety) and its active metabolite N^32-desmethyl-Study drug were measured using LC-MS/MS methods. Results were provided in ng per mL of plasma or CSF, and then converted to nmol/L using the molecular weights of the Study drug (511.45 g/mol) and N^32-desmethyl-Study drug (497.42 g/mol).\n(§1) Thus, the unbound (or free fraction) of the Study Drug and the N^32-desmethyl-Study drug are calculated.\nIn CSF, the total protein concentration varies between 0.2% and 0.5% of the total protein concentration of blood (H. Reiber, Clinica Chimica Acta, 2001; Schilde L M et al., PLoS ONE, 2018), therefore the concentration measured in CSF essentially corresponds to the free fraction of the compounds.\nFor each of the 4 patients, the ratio CSF/plasma of a given compound (Study drug parent or metabolite) was calculated using the CSF concentration of said compound (in nmol/L) and the unbound or free fraction of said compound in plasma (in nmol/L)."}, "[3]": {"assay": "in vivo", "set-up": "species or system cynomolgus monkeys", "conditions": "female, cynomolgus monkey, po", "experimental": "Compound of formula (I) was orally given to 3 female cynomolgus monkeys by gavage once a day for 91 days. The volume of administration was 5 mL/kg, and the vehicle was an aqueous solution of 0.5% (w/v) methylcellulose (cps 400) and 1% (w/v) Tween 80. The Compound of formula (I) dose was 10 mg/kg; this dose level was assessed in this study to be the […] no adverse effect level (NOAEL) based on general toxicology evaluation. The animals were necropsied 24 hours after the last dose after an overnight period without food. A sample from brain tissue (left forebrain) was collected from each animal, snap frozen in liquid nitrogen. and stored frozen at <−50° C. Blood samples were taken from the femoral vein into tubes containing K2EDTA, fully inverted approximately 10 times, and placed on crushed wet ice until centrifugation at 2300 g for 10 minutes at approximately 4° C. The resultant plasma was separated, transferred into polypropylene tubes, and frozen at <−50° C. Tissue and plasma samples were transported frozen on dry ice to the respective sites of analysis."}, "[4]": {"system": "U87-MG-luc GBM cell line", "assay": "U87-MG-luc tumors implanted intracranially in mice, combination with temozolomide", "format": "in vivo", "conditions": "28 day cycle", "experimental": "Male athymic nude mice were injected into the cerebellum with 1×10^5 U87-MG-luc cells in Matrigel. Animals were imaged to monitor tumor establishment and growth throughout the study using an In Vivo Imaging System (IVIS) once weekly, detecting tumor bioluminescence (BLI) in photons. Once tumor establishment was confirmed, animals were randomly allocated into 8 treatment groups: vehicle (0.5% methycellulose, 1% Tween 80 P.O. and saline IV.), Compound of formula (I) [CoF (I)](formulated as a suspension in 0.5% methycellulose and 1% Tween 80) administered orally at 3 mg/kg, at 10 mg/kg or at 30 mg/kg once daily (QD) in monotherapy, temolozomide [TMZ] administered orally at 3 mg/kg once daily (QD) in monotherapy, over a 28 day cycle, and combination of TMZ+compound of formula (I) at each dose) (n=6 animals per group for monotherapy groups and n=8 animals per group for combination groups). In combination arms, Compound of formula (I) and was administered 2 hours prior to TMZ. During routine monitoring, the animals were checked for any effects of tumor growth and treatments on behavior such as mobility, food and water consumption, body weight gain/loss 3 times a week, eye/hair matting and any other abnormalities. Mortality and observed clinical signs were recorded for individual animals in detail."}, "[5]": {"assay": "Free fraction in rat plasma (separate experiment, not shown)", "format": "in vitro ADME"}, "[6]": {"assay": "Binding to plasma proteins", "format": "in vitro ADME", "conditions": "human", "experimental": "as §1"}}, "note": "Like-named read-outs stand apart in the source and are kept apart here."}
{"smiles": "Cc1cc(Nc2ncc3c(n2)N(C)CN(c2c(Cl)cccc2Cl)C3=O)ccc1C1CCN(C)CC1", "note": "[Compound of formula (I)]", "values": [{"measurement": "Effect on radiotherapy (surviving fraction, colony formation)", "setting": "[1]", "result": "significantly increased effect of radiotherapy"}, {"measurement": "CSF to “unbound plasma” ratio", "setting": "[2]; Arm A, 150 mg, day 11 of cycle 1, listed as Study drug", "result": 0.33}, {"measurement": "Kp at 15 day", "setting": "[2]; human, CSF / unbound plasma, 90 mg, Arm B, 90 mg daily, Week 3 day 1 (Day 15), read-out: CSF to “unbound plasma” ratio", "result": 0.42}, {"measurement": "Kp at 11 day", "setting": "[2]; human, CSF / unbound plasma, 150 mg, Arm A, 150 mg, day 11 of cycle 1, read-out: CSF to “unbound plasma” ratio", "result": 0.35}, {"measurement": "Kp at 11 day", "setting": "[2]; human, CSF / unbound plasma, 200 mg, Arm A, 200 mg, day 11 of cycle 1, read-out: CSF to “unbound plasma” ratio", "result": 0.38}, {"measurement": "concentration at 15 day", "setting": "[2]; human, CSF, 90 mg, Arm B, 90 mg daily, Week 3 day 1 (Day 15), read-out: CSF concentration", "result": 21.3, "unit": "nM"}, {"measurement": "concentration at 15 day", "setting": "[2]; human, CSF, 90 mg, Arm B, 90 mg daily, Week 3 day 1 (Day 15), read-out: Raw data concentration in CSF", "result": 10.9, "unit": "ng/mL"}, {"measurement": "concentration at 11 day", "setting": "[2]; human, CSF, 200 mg, Arm A, 200 mg, day 11 of cycle 1, read-out: CSF concentration", "result": 19.8, "unit": "nM"}, {"measurement": "concentration at 11 day", "setting": "[2]; human, CSF, 200 mg, Arm A, 200 mg, day 11 of cycle 1, read-out: Raw data concentration in CSF", "result": 10.1, "unit": "ng/mL"}, {"measurement": "Kp", "setting": "[2]; human, CSF/unbound plasma, 4 patients, Arms A and B, read-out: CSF/plasma ratio", "result": "0.33 to 0.42"}, {"measurement": "concentration at 15 day", "setting": "[2]; human, plasma (unbound), 90 mg, Arm B, 90 mg daily, Week 3 day 1 (Day 15), read-out: Unbound plasma concentration", "result": 50.3, "unit": "nM"}, {"measurement": "concentration at 11 day", "setting": "[2]; human, plasma (unbound), 200 mg, Arm A, 200 mg, day 11 of cycle 1, read-out: Unbound plasma concentration", "result": 52.4, "unit": "nM"}, {"measurement": "concentration at 15 day", "setting": "[2]; human, plasma, 90 mg, Arm B, 90 mg daily, Week 3 day 1 (Day 15), read-out: Raw data concentration in plasma", "result": 309, "unit": "ng/mL"}, {"measurement": "concentration at 11 day", "setting": "[2]; human, plasma, 200 mg, Arm A, 200 mg, day 11 of cycle 1, read-out: Raw data concentration in plasma", "result": 322, "unit": "ng/mL"}, {"measurement": "NOAEL at 91 days", "setting": "[3]", "result": 10, "unit": "mg/kg"}, {"measurement": "Anti-tumor activity (mean relative BLI) vs vehicle", "setting": "[4]; monotherapy 3 mg/kg oral QD", "result": "did not result in any significant anti-tumor activity"}, {"measurement": "Anti-tumor activity (mean relative BLI) vs vehicle", "setting": "[4]; monotherapy 10 mg/kg oral QD", "result": "did not result in any significant anti-tumor activity"}, {"measurement": "Anti-tumor activity (mean relative BLI) vs vehicle", "setting": "[4]; monotherapy 30 mg/kg oral QD, p=0.0133 on day 36", "result": "significantly smaller tumors than vehicle controls"}, {"measurement": "fraction unbound", "setting": "[5]", "result": 0.078}, {"measurement": "fraction unbound", "setting": "[6]", "result": 0.083}]}
